This note sets out measurements from ChEMBL document CHEMBL3351953, “Inhibition of the Bacterial Adhesin FimH May Potentially Treat Inflammatory Bowel Diseases (IBD)” (ACS Med Chem Lett, 2014).

A short description of the assay: Inhibition of Escherichia coli FimH by competitive binding assay.
Take `O=C1NCC(c2ccc(O[C@H]3O[C@H](CO)[C@@H](O)[C@H](C[C@H]4O[C@H](CO)[C@@H](O)[C@H](O)[C@@H]4O)[C@@H]3O)cc2)=C(O)N1`: the Kd was found to be 111 nM.
Compound `CNC(=O)c1ccc(-c2ccc(C)c(O[C@H]3O[C@H](CO)[C@@H](O)[C@H](C[C@H]4O[C@H](CO)[C@@H](O)[C@H](O)[C@@H]4O)[C@@H]3O)c2)cc1` returned an equilibrium dissociation constant (Kd) of 19 nM.
The figure for `CNC(=O)c1cccc(-c2ccc(O[C@H]3O[C@H](CO)[C@@H](O)[C@H](C(O)[C@H]4O[C@H](CO)[C@@H](O)[C@H](O)[C@@H]4O)[C@@H]3O)cc2)c1` (stereo partly drawn) is 29 nM.

A word on the Kd: it is the equilibrium constant for the complex coming apart. Lower therefore signals higher affinity.
